Starred links: 1 amine or outer side, 2 acyl side, 3 side chain; linkers in the order of their positions; H or OH if unused. Positions of bridges follow the written chain, without caps; N, C: chain ends. Non-standard residues stand in square brackets, D forms with d. Residues, ends and D or L forms follow the SMILES beside them. *: point of attachment. hPhe(3-Cl-4-CF3) = N[C@@H](CCc1ccc(C(F)(F)F)c(Cl)c1)C(=O)O; hPhe(3-F,4-CF3) = N[C@@H](CCc1ccc(C(F)(F)F)c(F)c1)C(=O)O; NEtPhe(4-Cl) = CCN[C@@H](Cc1ccc(Cl)cc1)C(=O)O; NMedβ3hAla = C[C@H](CC(=O)[*:2])N(C)[*:1]; NMeGly(cBu) = CN[C@H](C(=O)O)C1CCC1; NMeCha = CN[C@@H](CC1CCCCC1)C(=O)O; NMeChg = CN[C@H](C(=O)O)C1CCCCC1; NMeD = CN[C@@H](CC(=O)O)C(=O)O; NMeL = CN[C@@H](CC(C)C)C(=O)O; NMeNle = CCCC[C@H](NC)C(=O)O; NEtAla = CCN[C@@H](C)C(=O)O; NMeV = CN[C@H](C(=O)O)C(C)C; NMeS = CN[C@@H](CO)C(=O)O; Morpholide = C1CN(*)CCO1; Piperidide = C1CCN(*)CC1; Ac5c = NC1(C(=O)O)CCCC1; Cyclobutyl = C1CC(*)C1; Sar = CNCC(=O)O; Propyl = CCC*
Assays:
[1] = target: T1, Kras and SOS1 (biotin-tagged human Kras loaded with GDP, His-tagged human SOS1) (Homo sapiens, UniProt P01116, G12D); assay: Protein-protein interaction inhibition between Kras and SOS1 (KrasGl2D-SOS PPI) using AlphaScreen; format: binding; settings: AlphaScreen; biotin-tagged human Kras loaded with GDP, His-tagged human SOS1; read-out: KRAS G12D-SOS PPI IC50
T1 construct: made in house; host or cells: E. coli (stated for Kras only)
T1 sequence (P01116 1-188 isoform P01116-2 G12D): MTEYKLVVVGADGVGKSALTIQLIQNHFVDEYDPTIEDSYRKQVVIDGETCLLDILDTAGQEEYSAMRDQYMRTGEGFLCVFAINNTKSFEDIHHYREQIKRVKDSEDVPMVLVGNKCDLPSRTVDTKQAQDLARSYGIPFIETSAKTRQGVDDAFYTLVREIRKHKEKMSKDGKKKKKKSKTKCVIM
In short: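 Donor beads (nickel) hold His-SOS1; acceptor beads (streptavidin) hold biotin-Kras bound to GDP. Signal measured at 520-620 nm following 680 nm excitation.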

[2] = test system: Human pancreatic cancer cell line AsPC-1; assay: Measurement of AsPC-1 cell growth inhibition (AsPC-1 CGI); format: cell-based; settings: 96 h
In short: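 AsPC-1 cells in 15% FBS RPMI-1640 were exposed to test compound for 96 hours at 37° C, with CellTiter-Glo as endpoint.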

`CC[C@H](C)[C@@H]1NC(=O)[C@H](C)N(CC)C(=O)C[C@@H](C)N(C)C(=O)[C@H](C(C)C)N(C)C(=O)C2(CCCC2)NC(=O)[C@@H]2CCCN2C(=O)[C@H](CCc2ccc(C(F)(F)F)c(Cl)c2)NC(=O)CN(C)C(=O)[C@H](CC2CCCCC2)N(C)C(=O)CN(C)C(=O)CN(C)C1=O` [Compound 264] (cyclo([Ac5c][NMeV][NMedβ3hAla][NEtAla]I[Sar][Sar][NMeCha][Sar][hPhe(3-Cl-4-CF3)]P)) was tested, and the IC50 [1] was 4.5 nM and the IC50 [2] was 100 to 500 nM.
`CC[C@H](C)[C@@H]1NC(=O)[C@H](COC2CCC2)N(C)C(=O)C[C@@H](C(=O)N2CCCCC2)N(C)C(=O)[C@H](C2CCCCC2)N(C)C(=O)C2(CCCC2)NC(=O)[C@@H]2CCCN2C(=O)[C@H](CCc2ccc(C(F)(F)F)c(Cl)c2)NC(=O)CN(C)C(=O)[C@H](CC2CCCCC2)N(C)C(=O)CN(C)C(=O)CN(C)C1=O` [Compound 699] ([NMeS](Cyclobutyl)I[Sar][Sar][NMeCha][Sar][hPhe(3-Cl-4-CF3)]P[Ac5c][NMeChg][NMeD]-Piperidide; lactam N-11) showed an IC50 [1] of 0.83 nM and an IC50 [2] of 50 to 100 nM.
`CCCOC[C@H]1C(=O)N(C)CC(=O)N[C@@H](CCc2ccc(C(F)(F)F)c(Cl)c2)C(=O)N2CCC[C@H]2C(=O)NC2(CCCC2)C(=O)N(C)[C@@H](C2CCCCC2)C(=O)N(C)[C@H](C(=O)N2CCOCC2)CC(=O)N(C)[C@@H](C2CCC2)C(=O)N[C@@H]([C@@H](C)CC)C(=O)N(C)CC(=O)N(C)CC(=O)N1C` [Compound 853] ([NMeGly(cBu)]I[Sar][Sar][NMeS](Propyl)[Sar][hPhe(3-Cl-4-CF3)]P[Ac5c][NMeChg][NMeD]-Morpholide; lactam N-11) was tested, and the IC50 [1] was 0.62 nM and the IC50 [2] was 100 to 500 nM.
In the case of `CC[C@H](C)[C@@H]1NC(=O)[C@H](CC(C)C)N(C)C(=O)C[C@@H](C(=O)N2CCCCC2)N(C)C(=O)[C@H](C(C)C)N(C)C(=O)C2(CCCC2)NC(=O)[C@@H]2CCCN2C(=O)[C@H](CCc2ccc(C(F)(F)F)c(F)c2)NC(=O)CN(C)C(=O)[C@H](CC2CCCCC2)N(C)C(=O)CN(C)C(=O)CN(C)C1=O` [Compound 1454] ([NMeL]I[Sar][Sar][NMeCha][Sar][hPhe(3-F,4-CF3)]P[Ac5c][NMeV][NMeD]-Piperidide; lactam N-11), the IC50 [1] is reported as 11 nM and the IC50 [2] is reported as 100 to 500 nM.
With `CC[C@H](C)[C@@H]1NC(=O)[C@H](CC(C)C)N(C)C(=O)C[C@@H](C(=O)N2CCCCC2)N(C)C(=O)[C@H](CC(C)C)N(C)C(=O)C2(CCCC2)NC(=O)[C@@H]2CCCN2C(=O)[C@H](CCc2ccc(C(F)(F)F)c(F)c2)NC(=O)CN(C)C(=O)[C@H](Cc2ccc(Cl)cc2)N(CC)C(=O)CN(C)C(=O)CN(C)C1=O` [Compound 328] ([NMeL]I[Sar][Sar][NEtPhe(4-Cl)][Sar][hPhe(3-F,4-CF3)]P[Ac5c][NMeL][NMeD]-Piperidide; lactam N-11) the IC50 [1] was 94 nM and the IC50 [2] was 100 to 500 nM.
With `CCCC[C@H]1C(=O)N(C)CC(=O)N[C@@H](CCc2ccc(C(F)(F)F)c(Cl)c2)C(=O)N2CCC[C@H]2C(=O)NC2(CCCC2)C(=O)N(C)[C@@H](C2CCCCC2)C(=O)N(C)[C@H](C(=O)N2CCCCC2)CC(=O)N(C)[C@@H](CC(C)C)C(=O)N[C@@H]([C@@H](C)CC)C(=O)N(C)CC(=O)N(C)CC(=O)N1C` [Compound 1832] ([NMeL]I[Sar][Sar][NMeNle][Sar][hPhe(3-Cl-4-CF3)]P[Ac5c][NMeChg][NMeD]-Piperidide; lactam N-11) the IC50 [1] was 1 nM and the IC50 [2] was 100 to 500 nM.
`CC[C@H](C)[C@@H]1NC(=O)[C@H](CC(C)C)N(C)C(=O)C[C@@H](C)N(C)C(=O)[C@H](C(C)C)N(C)C(=O)C2(CCCC2)NC(=O)[C@@H]2CCCN2C(=O)[C@H](CCc2ccc(C(F)(F)F)c(F)c2)NC(=O)CN(C)C(=O)[C@H](CC2CCCCC2)N(C)C(=O)CN(C)C(=O)CN(C)C1=O` [Compound 337] (cyclo([Ac5c][NMeV][NMedβ3hAla][NMeL]I[Sar][Sar][NMeCha][Sar][hPhe(3-F,4-CF3)]P)) was tested, and the IC50 [1] was 16 nM and the IC50 [2] was 100 to 500 nM.
